Measured values taken from US9802928B2 (Merck Sharp & Dohme Corp., priority 2013, dated 2017).

Key:
[1] = biological target: purified human autoBACE-2 (Homo sapiens (Human), UniProt Q9Y5Z0); test: BACE-2 Assay (BACE-HTRF assay); type: biochemical; settings: Ki calculated from IC50 using the Cheng-Prusoff equation; QSY7-EISEVNLDAEFC-Eu-amide substrate, pH 5.0; read-out: BACE2 Ki
Protocol: Inhibitor IC50s at purified human autoBACE-2 are determined in a time-resolved endpoint proteolysis assay that measures hydrolysis of the QSY7-EISEVNLDAEFC-Eu-amide FRET peptide substrate (BACE-HTRF assay). BACE-mediated hydrolysis of this peptide results in an increase in relative fluorescence (RFU) at 620 nm after excitation with 320 nm light. Inhibitor compounds, prepared at 3× the desired final concentration in 1×BACE assay buffer (20 mM sodium acetate pH 5.0, 10% glycerol, 0.1% Brij-35) supplemented with 7.5% DMSO are pre-incubated with an equal volume of autoBACE-2 enzyme diluted in 1×BACE assay buffer (final enzyme concentration 1 nM) in black 384-well NUNC plates for 30 minutes at 30° C. The assay is initiated by addition of an equal volume of the QSY7-EISEVNLDAEFC-Eu-amide substrate (200 nM final concentration, Km=8 μM […] for autoBACE-2) prepared in 1×BACE assay buffer supplemented with 7.5% DMSO and incubated for 90 minutes at 30° C. DMSO is present at 5% final concentration in the assay. Following laser excitation of sample wells at 320 nm, the fluorescence signal at 620 nm is collected for 400 ms following a 50 μs delay on a RUBYstar HTRF plate reader (BMG Labtechnologies). Raw RFU data is normalized to maximum (1.0 nM BACE/DMSO) and minimum (no enzyme/DMSO) RFU values. IC50s are determined by nonlinear regression analysis (sigmoidal dose response, variable slope) of percent inhibition data with minimum and maximum values set to 0 and 100 percent respectively. Similar IC50s are obtained when using raw RFU data. The Ki values are calculated from the IC50 using the Cheng-Prusoff equation.

[2] = biological target: soluble human BACE1 catalytic domain (Homo sapiens (Human), UniProt P56817); test: BACE1 HTRF FRET Assay; type: biochemical; settings: Ki calculated from IC50 using the Cheng-Prusoff equation; QSY7-APPswe-Eu substrate, pH 5.0
Description: Na^+-Acetate pH 5.0; 1% Brij-35; Glycerol; Dimethyl Sulfoxide (DMSO); Recombinant human soluble BACE1 catalytic domain (>95% pure); APP Swedish mutant peptide substrate (QSY7-APP^swe-Eu): QSY7-[…]-Europium-amide.
A homogeneous time-resolved FRET assay can be used to determine IC50 values for inhibitors of the soluble human BACE1 catalytic domain. This assay monitors the increase of 620 nm fluorescence that resulted from BACE1 cleavage of an APPswedish APP^swe mutant peptide FRET substrate (QSY7-[…]-Europium-amide). This substrate contains an N-terminal QSY7 moiety that serves as a quencher of the C-terminal Europium fluorophore (620 nm Em). In the absence of enzyme activity, 620 nm fluorescence is low in the assay and increased linearly over 3 hours in the presence of uninhibited BACE1 enzyme Inhibition of BACE1 cleavage of the QSY7-APP^swe-Eu substrate by inhibitors is manifested as a suppression of 620 nm fluorescence.
Varying concentrations of inhibitors at 3× the final desired concentration in a volume of 10 ul are preincubated with purified human BACE1 catalytic domain (3 nM in 10 μl) for 30 minutes at 30° C. in reaction buffer containing 20 mM Na-Acetate pH 5.0, 10% glycerol, 0.1% Brij-35 and 7.5% DSMO. Reactions are initiated by addition of 10 μl of 600 nM QSY7-APP^swe-Eu substrate (200 nM final) to give a final reaction volume of 30 μl in a 384 well Nunc HTRF plate. The reactions are incubated at 30° C. for 1.5 hours. The 620 nm fluorescence is then read on a Rubystar HTRF plate reader (BMG Labtechnologies) using a 50 millisecond delay followed by a 400 millisecond acquisition time window. Inhibitor IC50 values are derived from non-linear regression analysis of concentration response curves. Ki values are then calculated from IC50 values using the Cheng-Prusoff equation using a previously determined […] of 8 μM for the QSY7-APP^swe-Eu substrate at BACE1.

purified human autoBACE-2, sequence (Q9Y5Z0 63-473 limits assumed): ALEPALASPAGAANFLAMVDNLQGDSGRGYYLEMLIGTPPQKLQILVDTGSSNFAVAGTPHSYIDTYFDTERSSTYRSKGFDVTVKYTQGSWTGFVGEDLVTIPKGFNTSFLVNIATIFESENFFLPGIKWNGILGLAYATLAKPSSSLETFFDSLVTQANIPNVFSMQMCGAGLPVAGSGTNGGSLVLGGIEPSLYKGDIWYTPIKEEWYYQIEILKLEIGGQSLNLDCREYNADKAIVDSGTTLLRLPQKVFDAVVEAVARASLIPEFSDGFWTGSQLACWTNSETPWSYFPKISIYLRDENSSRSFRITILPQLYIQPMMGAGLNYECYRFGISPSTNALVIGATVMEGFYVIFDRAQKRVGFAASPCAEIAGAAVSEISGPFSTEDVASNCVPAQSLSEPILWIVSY
soluble human BACE1 catalytic domain, sequence (P56817 75-416): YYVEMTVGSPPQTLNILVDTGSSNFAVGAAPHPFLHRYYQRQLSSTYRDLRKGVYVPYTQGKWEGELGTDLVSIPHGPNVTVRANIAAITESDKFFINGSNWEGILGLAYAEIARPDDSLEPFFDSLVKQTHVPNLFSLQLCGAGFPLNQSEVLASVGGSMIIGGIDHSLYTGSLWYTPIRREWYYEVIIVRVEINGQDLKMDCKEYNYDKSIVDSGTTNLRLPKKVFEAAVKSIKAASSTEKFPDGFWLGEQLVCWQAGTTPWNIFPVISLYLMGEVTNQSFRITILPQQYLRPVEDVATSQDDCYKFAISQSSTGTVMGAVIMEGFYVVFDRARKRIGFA

Row | SMILES | Ki [1] [nM] | Ki [2] [nM]
1 | CN1C(=N)N[C@](C)(c2cc(NC(=O)c3cn4ccsc4n3)ccc2F)C2(CC2)S1(=O)=O [Example 1v, N-{4-fluoro-3-[(8R)-6-imino-5,8-dimethyl-4,4-dioxido-4-thia-5,7-diazaspiro[2.5]oct-8-yl]phenyl}imidazo[2,1-b][1,3]thiazole-6-carboxamide] | 63 | 232
2 | CN1C(=N)N[C@](C)(c2cc(NC(=O)c3cnc(OCC(F)(F)F)cn3)ccc2F)C2(CC2)S1(=O)=O [Example 1w, N-{4-fluoro-3-[(8R)-6-imino-5,8-dimethyl-4,4-dioxido-4-thia-5,7-diazaspiro[2.5]oct-8-yl]phenyl}-5-(2,2,2-trifluoroethoxy)pyrazine-2-carboxamide] | 159 | 6
3 | CN1C(=N)N[C@](C)(c2cc(NC(=O)c3ccc(Cl)cn3)ccc2F)C2(CC2)S1(=O)=O [Example 2, 5-chloro-N-{4-fluoro-3-[(8R)-6-imino-5,8-dimethyl-4,4-dioxido-4-thia-5,7-diazaspiro[2.5]oct-8-yl]phenyl}pyridine-2-carboxamide] | 2 | 5
